Laboratory results reported in patent US20230279025A1, “KRAS G12D INHIBITORS” (Mirati Therapeutics, Inc., priority 2020, published 2023).

Target: KRas G12D (Homo sapiens (Human), UniProt P01116, G12D)
Assay: KRas G12D Binding Assay (TR-FRET displacement of Cy5 labelled tracer)
Settings: GDP-loaded KRAS G12D (amino acids 1:169), 60 minute incubation at 22° C.
Protocol: After a 60 minute incubation at 22° C., the reaction was measured using a PerkinElmer EnVision multimode plate reader via TR-FRET dual wavelength detection, and the percent of control (POC) calculated using a ratiometric emission factor. […] The POC values were fit to a 4-parameter logistic curve and the IC50 value was determined as the concentration where the curve crosses 50 POC.
ND stands for “not determined.”

Chain of KRas G12D (P01116 other isoform, or with tags, fused parts or gaps G12D): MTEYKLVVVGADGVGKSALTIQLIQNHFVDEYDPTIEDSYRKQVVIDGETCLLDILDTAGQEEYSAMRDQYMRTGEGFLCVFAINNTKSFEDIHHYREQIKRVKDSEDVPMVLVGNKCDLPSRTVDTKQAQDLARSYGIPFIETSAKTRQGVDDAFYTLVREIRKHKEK

Row | Compound | IC50
1 | Nc1nc(N2CC3CCC(C2)N3)c2cnc(-c3cc(O)cc4ccccc34)c(F)c2n1 [Example 182, 4-[2-amino-4-(3,8-diazabicyclo[3.2.1]octan-3-yl)-8-fluoro-pyrido[4,3-d]pyrimidin-7-yl]naphthalen-2-ol] | 269 nM
2 | C#Cc1cccc2cccc(-c3ncc4c(N5C[C@H]6CC[C@@H](C5)N6)nc(OC[C@]56CCCN5C[C@@H](F)C6)nc4c3F)c12 [Example 205, 4-((1R,5S)-3,8-diazabicyclo[3.2.1]octan-3-yl)-7-(8-ethynylnaphthalen-1-yl)-8-fluoro-2-(((2S,7aR)-2-fluorotetrahydro-1H-pyrrolizin-7a(5H)-yl)methoxy)pyrido[4,3-d]pyrimidine] | 1.2 nM
3 | CC#Cc1cccc2cccc(-c3ncc4c(N5C[C@H]6CC[C@@H](C5)N6)nc(OCC56CCCN5CCC6)nc4c3F)c12 [Example 195, 4-((1R,5S)-3,8-diazabicyclo[3.2.1]octan-3-yl)-8-fluoro-7-(8-(prop-1-yn-1-yl)naphthalen-1-yl)-2-((tetrahydro-1H-pyrrolizin-7a(5H)-yl)methoxy)pyrido[4,3-d]pyrimidine] | 20.7 nM
4 | OCCc1ccccc1-c1ncc2c(N3C[C@H]4CC[C@@H](C3)N4)nc(OCC34CCCN3CCC4)nc2c1F [Example 315, 2-(2-(4-((1R,5S)-3,8-diazabicyclo[3.2.1]octan-3-yl)-8-fluoro-2-((hexahydro-1H-pyrrolizin-7a-yl)methoxy)pyrido[4,3-d]pyrimidin-7-yl)phenyl)ethanol] | 2540 nM
5 | CN1CCC[C@H]1COc1nc(N2C[C@H]3CC[C@@H](C2)N3)c2cnc(-c3cccc4cccc(C#CCO)c34)c(F)c2n1 [Example 194, 3-(8-(4-((1R,5S)-3,8-diazabicyclo[3.2.1]octan-3-yl)-8-fluoro-2-(((S)-1-methylpyrrolidin-2-yl)methoxy)pyrido[4,3-d]pyrimidin-7-yl)naphthalen-1-yl)prop-2-yn-1-ol] | 151 nM
6 | CO[C@H](C)COc1nc(N2C[C@H]3CC[C@@H](C2)N3)c2cnc(-c3cccc4cccc(Cl)c34)c(F)c2n1 [Example 138, 4-((1R,5S)-3,8-diazabicyclo[3.2.1]octan-3-yl)-7-(8-chloronaphthalen-1-yl)-8-fluoro-2-((R)-2-methoxypropoxy)pyrido[4,3-d]pyrimidine] | 8070 nM
7 | CN1CC[C@H](Oc2nc(N3C[C@H]4CC[C@@H](C3)N4)c3cnc(-c4cccc5cccc(Cl)c45)c(F)c3n2)C1 [Example 359, 4-((1R,5S)-3,8-diazabicyclo[3.2.1]octan-3-yl)-7-(8-chloronaphthalen-1-yl)-8-fluoro-2-(((S)-1-methylpyrrolidin-3-yl)oxy)pyrido[4,3-d]pyrimidine] | 1640 nM
8 | CNc1nc(N2CC3CCC(C2)N3)c2cnc(-c3cc(O)cc4ccccc34)c(F)c2n1 [Example 183, 4-[4-(3,8-diazabicyclo[3.2.1]octan-3-yl)-8-fluoro-2-(methylamino)pyrido[4,3-d]pyrimidin-7-yl]naphthalen-2-ol] | 393 nM
9 | N=C(N)NCCCOc1nc(N2CC3CCC(C2)N3)c2cnc(-c3cccc4cccc(Cl)c34)c(F)c2n1 [Example 177, 1-[3-[7-(8-chloro-1-naphthyl)-4-(3,8-diazabicyclo[3.2.1]octan-3-yl)-8-fluoro-pyrido[4,3-d]pyrimidin-2-yl]oxypropyl]guanidine] | 187 nM
10 | Cc1cc(-c2ncc3c(N4CC5CCC(C4)N5)nc(OC[C@@]45CCCN4C[C@H](F)C5)nc3c2F)c2cn[nH]c2c1 (stereo in doubt) [Example 391, 4-((1R,5S)-3,8-diazabicyclo[3.2.1]octan-3-yl)-8-fluoro-2-((2-fluorotetrahydro-1H-pyrrolizin-7a(5H)-yl)methoxy)-7-(6-methyl-1H-indazol-4-yl)pyrido[4,3-d]pyrimidine] | 662 nM
11 | Fc1c(-c2cccc3c2C(C2CC2)CC3)ncc2c(N3CC4CCC(C3)N4)nc(OC[C@@]34CCCN3C[C@H](F)C4)nc12 (stereo partly drawn) [Example 437, 4-(3,8-diazabicyclo[3.2.1]octan-3-yl)-7-(3-cyclopropyl-2,3-dihydro-1H-inden-4-yl)-8-fluoro-2-(((2R,7aS)-2-fluorotetrahydro-1H-pyrrolizin-7a(5H)-yl)methoxy)pyrido[4,3-d]pyrimidine] | 234 nM
12 | CN1CCC[C@H]1COc1nc(N2CC3C[C@@H](O)C(C2)N3)c2cnc(-c3cc(O)cc4ccccc34)c(F)c2n1 (stereo partly drawn) [Example 31, 3-(8-fluoro-7-(3-hydroxynaphthalen-1-yl)-2-(((S)-1-methylpyrrolidin-2-yl)methoxy)pyrido[4,3-d]pyrimidin-4-yl)-3,8-diazabicyclo[3.2.1]octan-6-ol] | 1.6 nM
13 | NCC#Cc1cccc2cccc(-c3ncc4c(N5C[C@H]6CC[C@@H](C5)N6)nc(OCC56CCCN5CCC6)nc4c3F)c12 [Example 241, 3-(8-(4-((1R,5S)-3,8-diazabicyclo[3.2.1]octan-3-yl)-8-fluoro-2-((tetrahydro-1H-pyrrolizin-7a(5H)-yl)methoxy)pyrido[4,3-d]pyrimidin-7-yl)naphthalen-1-yl)prop-2-yn-1-amine] | 79.2 nM
14 | Oc1cc(-c2ncc3c(N4C[C@H]5CC[C@@H](C4)N5)nc(OCCC(F)(F)F)nc3c2F)c2c(Cl)cccc2c1 [Example 393, 4-(4-((1R,5S)-3,8-diazabicyclo[3.2.1]octan-3-yl)-8-fluoro-2-(3,3,3-trifluoropropoxy)pyrido[4,3-d]pyrimidin-7-yl)-5-chloronaphthalen-2-ol] | 76.3 nM
15 | CN1CCC[C@H]1COc1nc(N2CC3CCC(C2)N3)c2cnc(-c3cccc4cccc(C#N)c34)c(F)c2n1 [Example 192] | 225 nM
16 | Fc1c(-c2cccc3cccc(Cl)c23)ncc2c(N3C[C@H]4CC[C@@H](C3)N4)nc(OCc3cccn4ccnc34)nc12 [Example 150, 4-((1R,5S)-3,8-diazabicyclo[3.2.1]octan-3-yl)-7-(8-chloronaphthalen-1-yl)-8-fluoro-2-(imidazo[1,2-a]pyridin-8-ylmethoxy)pyrido[4,3-d]pyrimidine] | 1980 nM
17 | O[C@@H]1C[C@@H]2CN(c3nc(OCCc4nccn4C(F)F)nc4c(F)c(-c5cccc6cccc(Cl)c56)ncc34)C[C@H]1N2 [Example 166, (1R,5R,6R)-3-(7-(8-chloronaphthalen-1-yl)-2-(2-(1-(difluoromethyl)-1H-imidazol-2-yl)ethoxy)-8-fluoropyrido[4,3-d]pyrimidin-4-yl)-3,8-diazabicyclo[3.2.1]octan-6-ol] | 1290 nM
18 | Fc1c(-c2c(Cl)ccc3ccccc23)ncc2c(N3C[C@H]4CC[C@@H](C3)N4)nc(OCC34CCCN3CCC4)nc12 [Example 349, 4-((1R,5S)-3,8-diazabicyclo[3.2.1]octan-3-yl)-7-(2-chloronaphthalen-1-yl)-8-fluoro-2-((tetrahydro-1H-pyrrolizin-7a(5H)-yl)methoxy)pyrido[4,3-d]pyrimidine] | 561 nM
19 | CNC(C)COc1nc(N2CC3CCC(C2)N3)c2cnc(-c3cccc4cccc(Cl)c34)c(F)c2n1 (stereo not drawn) [Example 363, bis(2,2,2-trifluoroacetate)] | 3930 nM
20 | O[C@@H]1C[C@@H]2CN(c3nc(OCCn4ccnc4CF)nc4c(F)c(-c5cccc6cccc(Cl)c56)ncc34)C[C@H]1N2 [Example 168, (1R,5R,6R)-3-(7-(8-chloronaphthalen-1-yl)-8-fluoro-2-(2-(2-(fluoromethyl)-1H-imidazol-1-yl)ethoxy)pyrido[4,3-d]pyrimidin-4-yl)-3,8-diazabicyclo[3.2.1]octan-6-ol] | 583 nM
21 | CN1C[C@H](NC(=O)c2cccc(S(=O)(=O)F)c2)C[C@H]1COc1nc(N2C[C@H]3CC[C@@H](C2)N3)c2cnc(-c3cccc4cccc(Cl)c34)c(F)c2n1 [Example 211, 3-(((3R,5S)-5-(((4-((1R,5S)-3,8-diazabicyclo[3.2.1]octan-3-yl)-7-(8-chloronaphthalen-1-yl)-8-fluoropyrido[4,3-d]pyrimidin-2-yl)oxy)methyl)-1-methylpyrrolidin-3-yl)carbamoyl)benzenesulfonyl fluoride tris(2,2,2-trifluoroacetate)] | 212 nM
22 | Cc1cccc(-c2ncc3c(N4C[C@H]5CC[C@@H](C4)N5)nc(OCC45CCCN4CCC5)nc3c2F)c1C(C)C [Example 301, 4-((1R,5S)-3,8-diazabicyclo[3.2.1]octan-3-yl)-8-fluoro-2-((hexahydro-1H-pyrrolizin-7a-yl)methoxy)-7-(2-isopropyl-3-methylphenyl)pyrido[4,3-d]pyrimidine] | 35.1 nM
23 | CC1(N)CN(c2nc(N3C[C@H]4CC[C@@H](C3)N4)c3cnc(-c4cccc5cccc(Cl)c45)c(F)c3n2)C1 [Example 125, 1-(4-((1R,5S)-3,8-diazabicyclo[3.2.1]octan-3-yl)-7-(8-chloronaphthalen-1-yl)-8-fluoropyrido[4,3-d]pyrimidin-2-yl)-3-methylazetidin-3-amine] | 668 nM
24 | CN(C)c1nc(N2CC3CCC(C2)N3)c2cnc(-c3cc(O)cc4ccccc34)c(F)c2n1 [Example 184, 4-[4-(3,8-diazabicyclo[3.2.1]octan-3-yl)-2-(dimethylamino)-8-fluoro-pyrido[4,3-d]pyrimidin-7-yl]naphthalen-2-ol] | 1990 nM
25 | Oc1ccccc1-c1ncc2c(N3C[C@H]4CC[C@@H](C3)N4)nc(OCC34CCCN3CCC4)nc2c1F [Example 267, 2-(4-((1R,5S)-3,8-diazabicyclo[3.2.1]octan-3-yl)-8-fluoro-2-((hexahydro-1H-pyrrolizin-7a-yl)methoxy)pyrido[4,3-d]pyrimidin-7-yl)phenol] | 3260 nM
26 | Fc1c(-c2cccc3cccc(Cl)c23)ncc2c(N3CC4CCC(C3)N4)nc(OC[C@@]34CCCN3C[C@@H](C(F)(F)F)C4)nc12 (mixture of isomers) [Example 382] | 21.1 nM
27 | O[C@@H]1C[C@@H]2CN(c3nc(OCCc4nccn4CF)nc4c(F)c(-c5cccc6cccc(Cl)c56)ncc34)C[C@H]1N2 [Example 170, (1R,5R,6R)-3-(7-(8-chloronaphthalen-1-yl)-8-fluoro-2-(2-(1-(fluoromethyl)-1H-imidazol-2-yl)ethoxy)pyrido[4,3-d]pyrimidin-4-yl)-3,8-diazabicyclo[3.2.1]octan-6-ol] | 842 nM
